Data published in the supplement of paper PMC4862054.

Experiments:
Settings in all cases: incubation time: 72 h
BT-474 [1] = test: drug sensitivity score (DSS), CellTox Green (DSS (AUC-based score)); higher = stronger drug effect (viability inhibition or cytotoxicity); extreme values may be limits of the assay
In short: (§1)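 Each compound occupied 5 concentrations in 10-fold steps over its own 10,000-fold range in 384-well plates, into which breast cancer cell lines were seeded as 20 µl suspension. Following 72 h of incubation, CellTox Green fluorescence (485/520 nm) was measured, and CellTiter-Glo luminescence was measured after 10 min at room temperature. Plates were individually normalised to 0.1 % DMSO and a positive kill control. From the area under the fitted dose-response curve, a drug sensitivity score was calculated.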

BT-549 [2] = test: as above
In short: as §1

CAL-51 = test: as above
In short: as §1

DU-4475 = test: as above
In short: as §1

HCC1599 [3] = test: as above
In short: as §1

HCC1937 [4] = test: as above
In short: as §1

HDQ-P1 [5] = test: as above
In short: as §1

Hs578T = test: as above
In short: as §1

MCF-10A = test: as above
In short: as §1

MDA-MB-436 [6] = test: as above
In short: as §1

MDA-MB-468 [7] = test: as above
In short: as §1

MFM-223 [8] = test: as above
In short: as §1

BT-474 [9] = test: drug sensitivity score (DSS), CellTiter-Blue viability (DSS (AUC-based score)); higher = stronger viability inhibition; extreme values may be limits of the assay
Protocol: (§2)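 DSRT with the CellTiter-Blue (resazurin reduction) viability readout, fluorescence 560/590 nm, 72 h incubation. Plates were normalised to DMSO and benzethonium chloride controls. DSS is computed from the area under the fitted dose-response curve (5 or 9 concentrations).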

BT-549 [10] = test: as above
Protocol: as §2

CAL-120 = test: as above
Protocol: as §2

CAL-148 = test: as above
Protocol: as §2

CAL-85-1 = test: as above
Protocol: as §2

HCC1599 [11] = test: as above
Protocol: as §2

HCC1937 [12] = test: as above
Protocol: as §2

HDQ-P1 [13] = test: as above
Protocol: as §2

MDA-MB-231 = test: as above
Protocol: as §2

MDA-MB-436 [14] = test: as above
Protocol: as §2

MDA-MB-453 = test: as above
Protocol: as §2

MDA-MB-468 [15] = test: as above
Protocol: as §2

MFM-223 [16] = test: as above
Protocol: as §2

SK-BR-3 = test: as above
Protocol: as §2

Compound | drug sensitivity score (BT-474 [1]) | drug sensitivity score (BT-549 [2]) | drug sensitivity score (CAL-51) | drug sensitivity score (DU-4475) | drug sensitivity score (HCC1599 [3]) | drug sensitivity score (HCC1937 [4]) | drug sensitivity score (HDQ-P1 [5]) | drug sensitivity score (Hs578T) | drug sensitivity score (MCF-10A) | drug sensitivity score (MDA-MB-436 [6]) | drug sensitivity score (MDA-MB-468 [7]) | drug sensitivity score (MFM-223 [8]) | drug sensitivity score (BT-474 [9]) | drug sensitivity score (BT-549 [10]) | drug sensitivity score (CAL-120) | drug sensitivity score (CAL-148) | drug sensitivity score (CAL-85-1) | drug sensitivity score (HCC1599 [11]) | drug sensitivity score (HCC1937 [12]) | drug sensitivity score (HDQ-P1 [13]) | drug sensitivity score (MDA-MB-231) | drug sensitivity score (MDA-MB-436 [14]) | drug sensitivity score (MDA-MB-453) | drug sensitivity score (MDA-MB-468 [15]) | drug sensitivity score (MFM-223 [16]) | drug sensitivity score (SK-BR-3)
CC(C)NC[C@@H](C(=O)N1CCN(c2ncnc3c2[C@H](C)C[C@H]3O)CC1)c1ccc(Cl)cc1 [GDC-0068] | 0.545 | 0 | 2.24 | 0 | 0 | 0 | 0.469 | 0 | 0 | 0 | 3.49 | 1.29 | – | – | – | – | – | – | – | – | – | – | – | – | – | –
CCCc1cc(C)[nH]c(=O)c1CNC(=O)c1cc(-c2ccnc(N3CCN(C)CC3)c2)cc2c1cnn2C(C)C [GSK343] | 5.28 | 0 | 0 | 0 | 1.18 | 0 | 0 | 4.43 | 0 | 0 | 0 | 7.62 | – | – | – | – | – | – | – | – | – | – | – | – | – | –
NC(=O)NO [Hydroxyurea] | 0 | 0 | 8.77 | 0 | 0 | 0 | 0 | – | 0 | – | 0 | 0 | 0 | 0 | 0 | 0 | 0 | 0 | 2.94 | 0 | 0 | 0 | 0 | 0 | 0 | 0
COc1cc2c(cc1-c1c(C)noc1C)ncc1[nH]c(=O)n([C@H](C)c3ccccn3)c12 [I-BET151] | 0 | 0 | 4.63 | 0.559 | 0 | 0 | 5.77 | 0 | 2.02 | 1.57 | 5.63 | 0 | – | – | – | – | – | – | – | – | – | – | – | – | – | –
CC(C)n1nc(-c2ccc3oc(N)nc3c2)c2c(N)ncnc21 [INK128] | 0 | 0 | 1.08 | 0 | 0 | 0 | 0 | 10.3 | 0 | 0 | 0 | 3.35 | – | – | – | – | – | – | – | – | – | – | – | – | – | –
Cc1c(C(=O)Nc2ccc(N3C[C@@H](C)O[C@@H](C)C3)nc2)cccc1-c1ccc(OC(F)(F)F)cc1 [NVP-LDE225] | – | – | – | – | – | – | – | – | – | – | – | – | 0 | 0 | 0 | 0 | 0 | 0 | 0 | 0 | 0 | 0 | 0 | 0 | 0 | 0
C[C@]12C=CC(=O)C=C1CC[C@@H]1[C@@H]2C(=O)C[C@@]2(C)[C@H]1CC[C@]2(O)C(=O)CO [Prednisone] | 0 | 0 | 0 | 0 | 0 | 0 | 0 | – | 0 | 0 | 0 | 0 | 0 | 0 | 0 | 0 | 0 | 0 | 0 | 0 | 0 | 0 | 0 | 0 | 0 | 0
C[C@@H](C(=O)O)c1ccc(-c2ccccc2)c(F)c1 [Tarenflurbil] | 0.00754 | 0 | 0 | 0 | 0 | 0 | 0 | – | 0.986 | 0 | 0 | 0 | 0 | 0 | 0 | 0 | 0 | 0 | 0 | 0 | 0 | 0 | 1.49 | 0 | 0 | 0
CN1CCc2c(c3ccccc3n2Cc2ccc(C(=O)NO)cc2)C1 [Tubastatin A] | 0.156 | 0 | 7.48 | 0 | 0 | 0 | 0 | 0 | 0 | 0 | 1.42 | 0 | – | – | – | – | – | – | – | – | – | – | – | – | – | –
